# According to US9402875B2, “Amidated dopamine neuron stimulating peptide restoration of mitochondrial activity” (University of Kentucky Research Foundation, priority 2006, dated 2016):
# Ends that are not written are not given here.
# Tests used:
# MN9D dopaminergic cells = test: TUNEL assay, protection against 6-OHDA toxicity; assay type: cell-based; conditions: 1 ng/mL for 1 hour before 100 μM 6-OHDA for 15 min; at 24 h
# Protocol: MN9D Cell Cultures: The MN9D cell line has been described by Choi (1991) Brain Res. 552:67-76 and was a gift from Michael Zigmond. Cells were cultured in DMEM supplemented with 10% Fetal Bovine Serum (FBS, Hyclone), 50 U/mL penicillin and streptomycin. For experiments, the cells were plated on 24-well poly-D-lysine in DMEM with 1% (v/v) penicillin-streptomycin. The cells were grown at 37° C. in 5% CO2.
# Terminal dUTP Nick-End Labeling (TUNEL) Assay in MN9D Cells: After treatment with DNSP-11, MN9D cells were fixed and labelled to assess degenerative nuclear changes as indicated by the extent of high-molecular weight DNA strand breaks. DNA fragmentation was detected by using steptavidin-horseradish peroxidise conjugate followed by the substrate diaminobenzidine (DAB) generating a colored precipitate. Ratios between apoptotic and total cells were determined (4 random fields/well; 4 wells/ group). Experiments were repeated 3 times.
# To evaluate DNSP-11's neuroprotective properties, DNSP-11 was compared to GDNF in its protection against 6-OHDA-induced toxicity in the dopaminergic cell line, MN9D. MN9D dopaminergic cells were incubated for 1 hour with either citrate buffer (control), 1 ng/mL of DNSP-11 or GDNF prior to 100 μM 6-OHDA exposure for 15 min. […]
# MN9D cells = test: Oxygen consumption rate (Seahorse XF-24); assay type: cell-based
# Protocol: Real-time measurement of oxygen consumption rate (OCR) of intact DNSP-11-treated MN9D cells, in the presence and absence of Complex I toxins, rotenone 1-5 ηM or TaClo 100-150 μM, were performed utilizing the Seahorse XF-24 extracellular flux analyzer. This instrument allows the simultaneous measurement of the mitochondrial bioenergetics from […] cell culture samples, without the mitochondrial isolation (and thus higher quantities of sample) needed for the standard (lower throughput) Clark-type electrode chamber. Details regarding the methods used for the Seahorse analysis were recently described in detail (Sauerbeck et al., Journal of Neuroscience Methods 198:36-43 (2011) incorporated herein by reference).
# Briefly, following sensor preparation, calibration, and dose optimization, the basal and maximal oxygen consumption rates (OCR) were measured in intact MN9D neuronal cells in the absence and presence of 1 μM DNSP-11. […] Following electron transport chain uncoupling by 100 nM FCCP to measure the maximal OCR, treatment of MN9D neurons with DNSP-11 had nearly a 60% increase (p<0.001) versus control.
# [1] = tested on: mitochondrial-associated genes in the substantia nigra; test: Gene array analysis (Affymetrix) of substantia nigra after DNSP-11; assay type: in vivo, rat; conditions: 48 h after bilateral 30 μg
# Protocol: Changes in expression of mitochondrial-associated genes in the substantia nigra (SN) of three young adult (5 month old) male F344 rats 48 hours following bilateral intranigral injections of DNSP-11 into the substantial nigra was assessed as follows.
# A 3 μg/μl DNSP-11 peptide solution was prepared in citrate buffer and filter sterilized. Stereotaxic injections were made of 30 μg DNSP-11 in 10 ul citrate buffer into the substantia nigra on each side of the brain. Controls received […] injections of vehicle. Forty-eight hours later, the animals were euthanized, the brains quickly recovered and sectioned so that the bilateral SN could be dissected out as one block of tissue and snap frozen in liquid nitrogen. RNA was extracted from the SN samples for gene array analysis, which was conducted on Affymetrix Version II chips. A gene chip was run for each of the six rats: three bilateral vehicle recipients, three bilateral 30 μg DNSP-11 recipients.
# B65 cells = test: Caspase-3 activity assay, mitochondrial toxins; assay type: cell-based
# Protocol: MN9D cells and B65 cells were cultured in Dulbecco's Modified Eagle's Medium (DMEM; 11995 (containing pyridoxol HCl); Sigma, St. Louis, Mo.) supplemented with 10% fetal bovine serum (HyClone, Logan, Utah), 50 U/mL penicillin and streptomycin. For each assay the cells were treated with mitochondrial-specific environmental toxins, i.e., MPP+, rotenone, and/or TaClo, and with or without DNSP-11. After incubation with the toxins, the cells were plated on 24-well poly-D-lysine plates (50,000 cells/well) for TUNEL assay (as described below) or 100,000 cell/well for caspase-3 assay in DMEM medium with 1% (v/v) penicillin-streptomycin only (as described below).
# B65 cells were plated on 24-well poly-D-lysine plates in DMEM and 50u/ml penicillin and streptomycin. Cells incubated in either 50 nM, 100 nM, or 250 nM rotenone or 10 μM, […] or 50 μM TaClo for 1 to 12 hours at 37° C. in 5% CO2, following pretreatment (1 to 30 minutes) with or without 10 nM or 100 nM DNSP-11. The cells were then lysed and protein level measured by BCA assay (BioRad). The protein level were normalized for every experiment. The Enz Chek Caspase-3 Kit (Invitrogen) was used to detect caspase-3 activity and fluorescence was read on fluorescence reader (excitation/emission 496/520 nm). Data are expressed as % of control and were repeated a minimum of three times.
substance,measurement,setting,value
"PPEAPAEDRSL-NH2 [DNSP-11, PPEAPAEDRSL-amide]",percent of TUNEL positive cells,MN9D dopaminergic cells,significant reduction
same,"basal and maximal OCRs, protection from rotenone","MN9D cells; 1 nM, 2.5 nM and 5 nM rotenone",protection
same,basal OCR vs control treatment,MN9D cells; 1 μM DNSP-11,no significant effect
same,reserve respiratory capacity (ratio maximal/basal OCR),MN9D cells; 1 μM DNSP-11,significantly increases
same,"maximal OCR, increase versus control","MN9D cells; 1 μM DNSP-11, uncoupling by 100 nM FCCP, p<0.001",~60%
same,"basal and maximal OCRs, protection from TaClo",MN9D cells; 100 μM and 150 μM TaClo,protection
same,APP FOLD CHANGE,[1]; vs control,−1.08
same,BACEI FOLD CHANGE,[1]; vs control,−1.09
same,CASP3 FOLD CHANGE,[1]; vs control,1.18
same,CASP8 FOLD CHANGE,[1]; vs control,1.25
same,CAT FOLD CHANGE,[1]; vs control,1.09
same,COX6A2 FOLD CHANGE,[1]; vs control,1.75
same,COX6B1 FOLD CHANGE,[1]; vs control,1.04
same,COX17 FOLD CHANGE,[1]; vs control,1.11
same,GLRX2 FOLD CHANGE,[1]; vs control,1.09
same,GPX7 FOLD CHANGE,[1]; vs control,1.19
same,MAOB FOLD CHANGE,[1]; vs control,1.13
same,MAP2K4 FOLD CHANGE,[1]; vs control,−1.12
same,MAPK9 FOLD CHANGE,[1]; vs control,−1.21
same,MAPK10 FOLD CHANGE,[1]; vs control,−1.08
same,NDUFA7 FOLD CHANGE,[1]; vs control,1.07
same,PARK7 FOLD CHANGE,[1]; vs control,1.02
same,PRDX5 FOLD CHANGE,[1]; vs control,1.13
same,PSEN1 FOLD CHANGE,[1]; vs control,1.16
same,TXN2 FOLD CHANGE,[1]; vs control,1.10
same,"CAT catalase expression level, PEPTIDE",[1]; P 0.015,2828.2
same,"CASP8 caspase 8 expression level, PEPTIDE","[1]; control 178.1, P 0.006",219.4
same,"GPX7 glutathione peroxidase 7 expression level, PEPTIDE","[1]; control 183.8, P 0.015",194.2
same,"CASP3 caspase 3 expression level, PEPTIDE","[1]; control 367.5, P 0.024",421.4
same,"BACEI beta-site APP-cleaving enzyme 1 expression level, PEPTIDE","[1]; control 510.6, P 0.016",451.6
same,"COX6A2 cytochrome c oxidase subunit Via polypeptide2 expression level, PEPTIDE","[1]; control 520.6, P 0.014",814.1
same,"MAPK10 mitogen-activated protein kinase 10 expression level, PEPTIDE","[1]; control 552.8, P 0.008",505.0
same,"PSEN1 presenilin 1 expression level, PEPTIDE","[1]; control 563.2, P 0.022",673.5
same,"MAPK9 mitogen-activated protein kinase 9 expression level, PEPTIDE","[1]; control 930.0, P 0.007",770.7
same,"TXN2 thioredoxin 2 expression level, PEPTIDE","[1]; control 1378.5, P 0.010",1511.9
same,"MAOB monoamine oxidase B expression level, PEPTIDE","[1]; control 1974.2, P 0.012",2199.8
same,"COX17 cytochrome c oxidase assembly homolog expression level, PEPTIDE","[1]; control 2017.8, P 0.025",2326.1
same,"MAP2K4 mitogen-activated protein kinase kinase 4 expression level, PEPTIDE","[1]; control 2744.4, P 0.043",2422.4
same,"NDUFA7 NADH dehydrogenase (ubiquinone) 1 alpha subcomplex, 7 expression level, PEPTIDE","[1]; control 2943.0, P 0.046",3125.4
same,"GLRX2 glutaredoxin 2 expression level, PEPTIDE","[1]; control 3472.2, P <0.001",3618.7
same,"PRDX5 peroxiredoxin 5 expression level, PEPTIDE","[1]; control 4790.1, P 0.020",5569.8
same,"PARK7 DJ-1 expression level, PEPTIDE","[1]; control 5159.4, P 0.032",5299.2
same,"COX6B1 cytochrome c oxidase subunit Vib polypeptide 1 expression level, PEPTIDE","[1]; control 7536.6, P 0.044",7869.7
same,"APP amyloid beta (A4) precursor protein expression level, PEPTIDE","[1]; control 10117.2, P 0.006",9734.4
same,"caspase-3 activity, DNSP-11 alone",B65 cells; no toxin,no significant effect
same,"caspase-3 activity, protection from toxins","B65 cells; rotenone or TaClo 1 to 12 hours, pretreatment with 10 nM or 100 nM DNSP-11",significant protection
